A short description of data set [1]: pKa of the enolic carbon of the β-diketone ligands. The conditions noted are these: β-diketone ligand.
Source text: (§1) As mentioned earlier, it is necessary to form the enolate of the dicarbonyl compound for complex formation with metal to occur. […] It is usually (by not universally) desirable to stay below pH 9.0 to allow chelate stability under physiological assay conditions.
Data set [2] is described as follows: pH range of stable chelate formation. The following applies: Eu chelate. The data set is classed as physicochemical.
Source text: as §1

Data on one compound can be found in patent publication US7053249B2, “Metal chelates and methods of using them for time-resolved fluorescence” (IDEXX Laboratories, Inc., priority 2002, dated 2006).

With `O=C(CC(=O)c1ccc2ccccc2c1)c1cc(F)cc(F)c1` [compound 4], the “pKa for the enolic carbon” value in data set [1] is listed as approximately 4.2. Also, the “pH above which a stable chelate is formed” value in data set [2] is recorded as more than 4.5 pH.
